Measurements as given in PubChem BioAssay AID336 (DTP/NCI, 2004).
Several values for one entry are separate records, joined by “and”; a condition that tells them apart may be missing. Identical values can stand only once. Inconclusive results and toxic doses are left out.

System: BDF1 mice, P388/VCR leukemia ip, median survival T/C
Test: NCI In Vivo Anticancer Drug Screen. Data for tumor model P388 Leukemia resistant to Vincristine; NSC 67574 (intraperitoneal) in B6D2F1 (BDF1) mice
Details: endpoint: median survival time, higher = longer survival
Description: The antitumor activity of compounds was measured in mice bearing transplantable tumors. Survival or tumor size were measured and the results are expressed as the measurement made in the treated group (T) divided by the measurement made in the vehicle treated control group (C). The tumor model used in this assay is P388 Leukemia resistant to Vincristine; NSC 67574 (intraperitoneal) in B6D2F1 (BDF1) mice

[1] = dose: 500.0 micrograms/kg/injection, schedule: Q04DX003 (ip), vehicle: saline
[2] = dose: 1000.0 micrograms/kg/injection, schedule: Q04DX003 (ip), vehicle: saline
[3] = dose: 2000.0 micrograms/kg/injection, schedule: Q04DX003 (ip), vehicle: saline
[4] = dose: 6.25 mg/kg/injection, schedule: Q01DX010 (ip), vehicle: saline
[5] = dose: 12.5 mg/kg/injection, schedule: Q01DX010 (ip), vehicle: saline
[6] = dose: 2.0 mg/kg/injection, schedule: Q01DX010 (ip), vehicle: saline
[7] = dose: 4.0 mg/kg/injection, schedule: Q01DX010 (ip), vehicle: saline
[8] = dose: 8.0 mg/kg/injection, schedule: Q01DX010 (ip), vehicle: saline
[9] = dose: 16.0 mg/kg/injection, schedule: Q01DX010 (ip), vehicle: saline
[10] = dose: 32.0 mg/kg/injection, schedule: Q01DX010 (ip), vehicle: saline
[11] = dose: 3.13 mg/kg/injection, schedule: Q01DX010 (ip), vehicle: saline
[12] = dose: 50.0 mg/kg/injection, schedule: Q01DX010 (ip), vehicle: saline
[13] = dose: 64.0 mg/kg/injection, schedule: Q01DX010 (ip), vehicle: saline

SMILES: CC[C@]1(O)C[C@H]2CN(CCc3c([nH]c4ccccc34)[C@@](C(=O)OC)(c3cc4c(cc3OC)N(C=O)[C@H]3[C@@](O)(C(=O)OC)[C@H](OC(C)=O)[C@]5(CC)C=CCN6CC[C@]43[C@@H]65)C2)C1
- T/C (dose: 0.03 mg/kg/injection, schedule: Q01DX010 (ip), vehicle: saline): 110 % of control
- T/C (dose: 0.06 mg/kg/injection, schedule: Q01DX010 (ip), vehicle: saline): 113 % of control
- T/C (dose: 0.12 mg/kg/injection, schedule: Q01DX010 (ip), vehicle: saline): 114 % of control
- T/C (dose: 0.36 mg/kg/injection, schedule: Q04DX003 (ip), vehicle: saline): 106 % of control
- T/C (dose: 0.6 mg/kg/injection, schedule: Q04DX003 (ip), vehicle: saline): 109 % of control
- T/C (dose: 1.0 mg/kg/injection, schedule: Q04DX003 (ip), vehicle: saline): 113 % of control
- T/C (dose: 1.67 mg/kg/injection, schedule: Q04DX003 (ip), vehicle: saline): 107 % of control
- T/C (dose: 250.0 micrograms/kg/injection, schedule: Q04DX003 (ip), vehicle: saline): 111 % of control
- T/C (dose: 324.0 micrograms/kg/injection, schedule: Q04DX003 (ip), vehicle: saline): 98 % of control and 103 % of control
- T/C (dose: 360.0 micrograms/kg/injection, schedule: Q04DX003 (ip), vehicle: saline): 101 % of control and 104 % of control
- T/C (dose: 389.0 micrograms/kg/injection, schedule: Q04DX003 (ip), vehicle: saline): 109 % of control
- T/C (dose: 432.0 micrograms/kg/injection, schedule: Q04DX003 (ip), vehicle: saline): 106 % of control
- T/C [1]: 107 % of control
- T/C (dose: 540.0 micrograms/kg/injection, schedule: Q04DX003 (ip), vehicle: saline): 99 % of control and 104 % of control
- T/C (dose: 600.0 micrograms/kg/injection, schedule: Q04DX003 (ip), vehicle: saline): 99 % of control and 103 % of control
- T/C (dose: 648.0 micrograms/kg/injection, schedule: Q04DX003 (ip), vehicle: saline): 118 % of control
- T/C (dose: 720.0 micrograms/kg/injection, schedule: Q04DX003 (ip), vehicle: saline): 104 % of control
- T/C (dose: 900.0 micrograms/kg/injection, schedule: Q04DX003 (ip), vehicle: saline): 104 % of control and 111 % of control
- T/C [2]: 95 % of control and 104 % of control and 108 % of control
- T/C (dose: 1080.0 micrograms/kg/injection, schedule: Q04DX003 (ip), vehicle: saline): 113 % of control
- T/C (dose: 1200.0 micrograms/kg/injection, schedule: Q04DX003 (ip), vehicle: saline): 107 % of control
- T/C (dose: 1500.0 micrograms/kg/injection, schedule: Q04DX003 (ip), vehicle: saline): 99 % of control and 101 % of control
- T/C (dose: 1670.0 micrograms/kg/injection, schedule: Q04DX003 (ip), vehicle: saline): 100 % of control
- T/C (dose: 1800.0 micrograms/kg/injection, schedule: Q04DX003 (ip), vehicle: saline): 115 % of control
- T/C [3]: 108 % of control and 111 % of control

SMILES: CCC1(O)CC2CN(CCc3c([nH]c4ccccc34)C(C(=O)OC)(c3cc4c(cc3OC)N(C)C3C(O)(C(=O)NCCO)C(O)C5(CC)C=CCN6CCC43C65)C2)C1 (centres undefined)
- T/C [1]: 107 % of control
- T/C [2]: 106 % of control
- T/C [3]: 105 % of control
- T/C (dose: 4000.0 micrograms/kg/injection, schedule: Q04DX003 (ip), vehicle: saline): 108 % of control

SMILES: O=NN(CCCl)C(=O)NCCCl
- T/C [4]: 300 % of control
- T/C [5]: 188 % of control and 300 % of control
- T/C (dose: 13.0 mg/kg/injection, schedule: Q01DX001 (ip), vehicle: saline): 151 % of control
- T/C (dose: 21.6 mg/kg/injection, schedule: Q01DX001 (ip), vehicle: saline): 164 % of control
- T/C (dose: 36.0 mg/kg/injection, schedule: Q01DX001 (ip), vehicle: saline): 212 % of control

SMILES: COC(=O)Nc1nc2ccc(C(=O)c3cccs3)cc2[nH]1
- T/C (dose: 21.6 mg/kg/injection, schedule: Q04DX003 (ip), vehicle: other): 151 % of control
- T/C (dose: 36.0 mg/kg/injection, schedule: Q04DX003 (ip), vehicle: other): 242 % of control
- T/C (dose: 60.0 mg/kg/injection, schedule: Q04DX003 (ip), vehicle: other): 189 % of control

SMILES: CC(CCC(C)OS(C)(=O)=O)OS(C)(=O)=O (centres undefined)
- T/C [6]: 100 % of control
- T/C [7]: 96 % of control
- T/C [8]: 96 % of control and 100 % of control
- T/C [9]: 100 % of control and 112 % of control
- T/C [10]: 90 % of control

SMILES: CO[C@H](C(=O)[C@@H](O)[C@@H](C)O)[C@@H]1Cc2cc3cc(OC4CC(OC5CC(O)C(O)C(C)O5)C(O)C(C)O4)c(C)c(O)c3c(O)c2C(=O)[C@H]1OC1CC(OC2CC(OC3CC(C)(O)C(O)C(C)O3)C(O)C(C)O2)C(O)C(C)O1 (some centres undefined)
- T/C (dose: 216.0 micrograms/kg/injection, schedule: Q01DX005 (ip), vehicle: water): 97 % of control
- T/C (dose: 360.0 micrograms/kg/injection, schedule: Q01DX005 (ip), vehicle: water): 100 % of control
- T/C (dose: 600.0 micrograms/kg/injection, schedule: Q01DX005 (ip), vehicle: water): 95 % of control
- T/C (dose: 1000.0 micrograms/kg/injection, schedule: Q01DX005 (ip), vehicle: water): 95 % of control

SMILES: COC1C(O)C(C)OC(OC2C(Oc3cccc4c(O)c5c(=O)oc6ccc(C)c7c(=O)oc(c34)c5c67)OC(C)C(O)C2O)C1O (centres undefined)
- T/C (dose: 43.2 mg/kg/injection, schedule: Q04DX003 (ip), vehicle: acid diluted with saline): 121 % of control
- T/C (dose: 72.0 mg/kg/injection, schedule: Q04DX003 (ip), vehicle: acid diluted with saline): 114 % of control
- T/C (dose: 200.0 mg/kg/injection, schedule: Q04DX003 (ip), vehicle: acid diluted with saline): 123 % of control

SMILES: O=C(Nc1ccc(NC(=O)Nc2cccc(C3=NCCN3)c2)cc1)Nc1cccc(C2=NCCN2)c1
- T/C (dose: 120.0 mg/kg/injection, schedule: Q01DX010 (ip), vehicle: saline): 162 % of control and 183 % of control
- T/C (dose: 480.0 mg/kg/injection, schedule: Q01DX010 (ip), vehicle: saline): 100 % of control

SMILES: [I][Hg][CH2]C1COC([CH2][Hg][I])CO1 (centres undefined)
- T/C (dose: 0.78 mg/kg/injection, schedule: Q01DX010 (ip), vehicle: saline): 88 % of control
- T/C (dose: 1.56 mg/kg/injection, schedule: Q01DX010 (ip), vehicle: saline): 103 % of control
- T/C [11]: 111 % of control

SMILES: Oc1cc(CN(CCCl)CCCl)c(O)cc1CN(CCCl)CCCl
- T/C (dose: 0.31 mg/kg/injection, schedule: Q01DX010 (ip), vehicle: saline): 112 % of control
- T/C (dose: 2.5 mg/kg/injection, schedule: Q01DX010 (ip), vehicle: saline): 117 % of control
- T/C (dose: 5.0 mg/kg/injection, schedule: Q01DX010 (ip), vehicle: saline): 100 % of control

SMILES: O=C(Nc1ccc(C2=NCCCN2)cc1)c1ccc(C(=O)Nc2ccc(C3=NCCCN3)cc2)cc1
- T/C (dose: 20.0 mg/kg/injection, schedule: Q04DX003 (ip), vehicle: Klucel (hydroxypropylcellulose) (HPC)): 158 % of control
- T/C (dose: 33.3 mg/kg/injection, schedule: Q04DX003 (ip), vehicle: Klucel (hydroxypropylcellulose) (HPC)): 101 % of control

SMILES: CC(=O)Nc1ccc2nc3ccc(NC(C)=O)cc3[n+](-c3ccccc3)c2c1
- T/C (dose: 25.0 mg/kg/injection, schedule: Q01DX010 (ip), vehicle: saline): 91 % of control
- T/C [12]: 87 % of control

SMILES: CC1CC(C)(O)CC(C(O)CC2CC(=O)NC(=O)C2)C1=O (centres undefined)
- T/C (dose: 480.0 micrograms/kg/injection, schedule: Q01DX009 (ip), vehicle: saline): 105 % of control
- T/C (dose: 800.0 micrograms/kg/injection, schedule: Q01DX009 (ip), vehicle: saline): 92 % of control

SMILES: O=C(O)CCCc1ccc(N(CCCl)CCCl)cc1
- T/C [11]: 92 % of control and 104 % of control
- T/C [4]: 100 % of control
- T/C [5]: 152 % of control

SMILES: CCCCn1cnc2c(=S)nc[nH]c21
- T/C [9]: 107 % of control
- T/C [10]: 96 % of control
- T/C [13]: 100 % of control

SMILES: Nc1nc(=S)c2ncn(C3OC(CO)C(O)C3O)c2[nH]1 (centres undefined)
- T/C (dose: 0.5 mg/kg/injection, schedule: Q01DX010 (ip), vehicle: saline): 92 % of control
- T/C (dose: 1.0 mg/kg/injection, schedule: Q01DX010 (ip), vehicle: saline): 107 % of control
- T/C [6]: 155 % of control
- T/C [7]: 110 % of control
- T/C [8]: 105 % of control
- T/C [9]: 100 % of control

SMILES: Nc1nc(SCc2ccccc2)c2[nH]cnc2n1
- T/C [8]: 100 % of control
- T/C [9]: 95 % of control and 100 % of control
- T/C [10]: 104 % of control and 109 % of control
- T/C [13]: 95 % of control and 100 % of control

SMILES: CC[C@H]1CN2CCc3cc(OC)c(OC)cc3[C@@H]2C[C@@H]1C[C@H]1NCCc2cc(OC)c(OC)cc21
- T/C (dose: 7.78 mg/kg/injection, schedule: Q04DX003 (ip), vehicle: saline): 105 % of control
- T/C (dose: 13.0 mg/kg/injection, schedule: Q04DX003 (ip), vehicle: saline): 108 % of control
- T/C (dose: 21.6 mg/kg/injection, schedule: Q04DX003 (ip), vehicle: saline): 105 % of control

SMILES: CCN(CC)CCNc1ccc(C)c2sc3ccccc3c(=O)c12
- T/C [12]: 159 % of control and 172 % of control
- T/C (dose: 100.0 mg/kg/injection, schedule: Q01DX010 (ip), vehicle: saline): 100 % of control
